Tested on: 439559-082-T-J2-PDC spheroid viability
Assay: Anticancer human tumor 439559-082-T-J2-PDC patient-derived colon adenocarcinoma cell line growth inhibition [POLQ]
Conditions: spheroids with HUVEC and MSC; for IC50: curve of first compound; for viability, T/C: stronger effect = lower value
How it was run: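 Three-cell-type spheroids modelling solid tumor plus stroma served as the readout system; POL inhibitors were tested individually and in combination, concentration ranges set by clinical Cmax where known.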

[1] = second compound 0.0316 µM, first compound 0.0316 µM
[2] = second compound 0.0316 µM, first compound 0.1 µM
[3] = second compound 0.0316 µM, first compound 0.316 µM
[4] = second compound 0.0316 µM, first compound 1 µM
[5] = second compound 0.0316 µM, first compound 3.16 µM
[6] = second compound 0.0316 µM, first compound 10 µM
[7] = second compound 0.1 µM, first compound 0.0316 µM
[8] = second compound 0.1 µM, first compound 0.1 µM
[9] = second compound 0.1 µM, first compound 0.316 µM
[10] = second compound 0.1 µM, first compound 1 µM
[11] = second compound 0.1 µM, first compound 3.16 µM
[12] = second compound 0.1 µM, first compound 10 µM
[13] = second compound 0.316 µM, first compound 0.0316 µM
[14] = second compound 0.316 µM, first compound 0.1 µM
[15] = second compound 0.316 µM, first compound 0.316 µM
[16] = second compound 0.316 µM, first compound 1 µM
[17] = second compound 0.316 µM, first compound 3.16 µM
[18] = second compound 0.316 µM, first compound 10 µM
[19] = second compound 1 µM, first compound 0.0316 µM
[20] = second compound 1 µM, first compound 0.1 µM
[21] = second compound 1 µM, first compound 0.316 µM
[22] = second compound 1 µM, first compound 1 µM
[23] = second compound 1 µM, first compound 3.16 µM
[24] = second compound 1 µM, first compound 10 µM
[25] = second compound 3.16 µM, first compound 0.0316 µM
[26] = second compound 3.16 µM, first compound 0.1 µM
[27] = second compound 3.16 µM, first compound 0.316 µM
[28] = second compound 3.16 µM, first compound 1 µM
[29] = second compound 3.16 µM, first compound 3.16 µM
[30] = second compound 3.16 µM, first compound 10 µM
[31] = second compound 10 µM, first compound 0.0316 µM
[32] = second compound 10 µM, first compound 0.1 µM
[33] = second compound 10 µM, first compound 0.316 µM
[34] = second compound 10 µM, first compound 1 µM
[35] = second compound 10 µM, first compound 3.16 µM
[36] = second compound 10 µM, first compound 10 µM
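Also: spheroids exposed to compounds for seven days before readout.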
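For viability, T/C in this document: 100% = DMSO vehicle control viability.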

SMILES: CC(C)n1c(=O)n(C)c2cnc3cc(F)c(-c4ccc(OCCCN5CCCCC5)nc4)cc3c21 + Cc1cccc(N(C)C(=O)C2C(O)CCN2c2nc(C)cc(C(F)(F)F)c2C#N)c1
- IC50 (second compound 0.0316 µM): > 10000 nM
- IC50 (second compound 0.1 µM): > 10000 nM
- IC50 (second compound 0.316 µM): > 10000 nM
- IC50 (second compound 1 µM): > 10000 nM
- IC50 (second compound 3.16 µM): > 10000 nM
- IC50 (second compound 10 µM): > 10000 nM
- viability, T/C [1]: 103%
- viability, T/C [2]: 106%
- viability, T/C [3]: 109%
- viability, T/C [4]: 116%
- viability, T/C [5]: 99.8%
- viability, T/C [6]: 93.9%
- viability, T/C [7]: 115%
- viability, T/C [8]: 105%
- viability, T/C [9]: 107%
- viability, T/C [10]: 111%
- viability, T/C [11]: 109%
- viability, T/C [12]: 94%
- viability, T/C [13]: 103%
- viability, T/C [14]: 104%
- viability, T/C [15]: 108%
- viability, T/C [16]: 107%
- viability, T/C [17]: 110%
- viability, T/C [18]: 102%
- viability, T/C [19]: 108%
- viability, T/C [20]: 103%
- viability, T/C [21]: 108%
- viability, T/C [22]: 115%
- viability, T/C [23]: 108%
- viability, T/C [24]: 87.4%
- viability, T/C [25]: 93.5%
- viability, T/C [26]: 111%
- viability, T/C [27]: 96.9%
- viability, T/C [28]: 112%
- viability, T/C [29]: 103%
- viability, T/C [30]: 81.5%
- viability, T/C [31]: 96.5%
- viability, T/C [32]: 93.6%
- viability, T/C [33]: 108%
- viability, T/C [34]: 101%
- viability, T/C [35]: 97.6%
- viability, T/C [36]: 87.4%

SMILES: CCc1c2c(nc3ccc(O)cc13)-c1cc3c(c(=O)n1C2)COC(=O)[C@]3(O)CC + Nc1ccc(C#CCN(C(=O)Cc2ncc(C(F)(F)F)cc2C(F)(F)F)c2ccc(F)cc2)nn1
- IC50 (second compound 0.0316 µM): > 1000 nM
- IC50 (second compound 0.1 µM): > 1000 nM
- IC50 (second compound 0.316 µM): > 1000 nM
- IC50 (second compound 1 µM): > 1000 nM
- IC50 (second compound 3.16 µM): 875 nM
- IC50 (second compound 10 µM): 840 nM
- viability, T/C (second compound 0.0316 µM, first compound 0.00316 µM): 102%
- viability, T/C (second compound 0.0316 µM, first compound 0.01 µM): 79.3%
- viability, T/C [1]: 75.1%
- viability, T/C [2]: 83.4%
- viability, T/C [3]: 81.6%
- viability, T/C [4]: 52.8%
- viability, T/C (second compound 0.1 µM, first compound 0.00316 µM): 91.4%
- viability, T/C (second compound 0.1 µM, first compound 0.01 µM): 79.4%
- viability, T/C [7]: 71%
- viability, T/C [8]: 73.1%
- viability, T/C [9]: 75.7%
- viability, T/C [10]: 55.1%
- viability, T/C (second compound 0.316 µM, first compound 0.00316 µM): 88.5%
- viability, T/C (second compound 0.316 µM, first compound 0.01 µM): 80.6%
- viability, T/C [13]: 63.4%
- viability, T/C [14]: 74.9%
- viability, T/C [15]: 90.4%
- viability, T/C [16]: 53.1%
- viability, T/C (second compound 1 µM, first compound 0.00316 µM): 93.3%
- viability, T/C (second compound 1 µM, first compound 0.01 µM): 81%
- viability, T/C [19]: 75%
- viability, T/C [20]: 68.2%
- viability, T/C [21]: 86%
- viability, T/C [22]: 50.6%
- viability, T/C (second compound 3.16 µM, first compound 0.00316 µM): 87.5%
- viability, T/C (second compound 3.16 µM, first compound 0.01 µM): 81.2%
- viability, T/C [25]: 69.2%
- viability, T/C [26]: 72.9%
- viability, T/C [27]: 81.5%
- viability, T/C [28]: 46.5%
- viability, T/C (second compound 10 µM, first compound 0.00316 µM): 92.6%
- viability, T/C (second compound 10 µM, first compound 0.01 µM): 74.4%
- viability, T/C [31]: 76.8%
- viability, T/C [32]: 73.9%
- viability, T/C [33]: 80%
- viability, T/C [34]: 44.8%

SMILES: CC1COCCN1c1cc(-c2ccnn2C)c2ccnc(-c3ccn[nH]3)c2n1 (stereo unspecified) + Nc1ccc(C#CCN(C(=O)Cc2ncc(C(F)(F)F)cc2C(F)(F)F)c2ccc(F)cc2)nn1
- IC50 (second compound 0.0316 µM): 475 nM
- IC50 (second compound 0.1 µM): > 10000 nM
- IC50 (second compound 0.316 µM): > 10000 nM
- IC50 (second compound 1 µM): 981 nM
- IC50 (second compound 3.16 µM): 313 nM
- IC50 (second compound 10 µM): 293 nM
- viability, T/C [1]: 105%
- viability, T/C [2]: 82.9%
- viability, T/C [3]: 50.7%
- viability, T/C [4]: 41.2%
- viability, T/C [5]: 57%
- viability, T/C [6]: 49.1%
- viability, T/C [7]: 105%
- viability, T/C [8]: 97.1%
- viability, T/C [9]: 57.5%
- viability, T/C [10]: 48.9%
- viability, T/C [11]: 55.8%
- viability, T/C [12]: 50.3%
- viability, T/C [13]: 105%
- viability, T/C [14]: 89.5%
- viability, T/C [15]: 52.9%
- viability, T/C [16]: 49.9%
- viability, T/C [17]: 57.1%
- viability, T/C [18]: 52.3%
- viability, T/C [19]: 108%
- viability, T/C [20]: 84.7%
- viability, T/C [21]: 60.1%
- viability, T/C [22]: 42.4%
- viability, T/C [23]: 56.8%
- viability, T/C [24]: 46%
- viability, T/C [25]: 111%
- viability, T/C [26]: 78.1%
- viability, T/C [27]: 50.1%
- viability, T/C [28]: 43.1%
- viability, T/C [29]: 52.2%
- viability, T/C [30]: 47.9%
- viability, T/C [31]: 93.3%
- viability, T/C [32]: 74.3%
- viability, T/C [33]: 47.4%
- viability, T/C [34]: 48.7%
- viability, T/C [35]: 54.2%
- viability, T/C [36]: 42.8%
